Structures are written as SMILES.

One may read the IC50 as the concentration that inhibits the measured activity by half.

Chain of Peptidyl-prolyl cis-trans isomerase NIMA-interacting 1 (Q13526 whole entry): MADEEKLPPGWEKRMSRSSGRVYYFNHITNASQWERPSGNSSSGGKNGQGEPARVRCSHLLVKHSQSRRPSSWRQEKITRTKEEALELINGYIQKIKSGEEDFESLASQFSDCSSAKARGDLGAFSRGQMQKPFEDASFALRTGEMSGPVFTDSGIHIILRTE

This assay has as its target Peptidyl-prolyl cis-trans isomerase NIMA-interacting 1 (Homo sapiens, UniProt Q13526). Description: Inhibition of Pin1 (unknown origin) using Suc-Ala-Glu-Pro-Phe-4-nitroanilide as substrate after 30 mins by protease-coupled assay.
The compound `CC1(C)C(=O)CC[C@]2(C)C3=C(CC[C@@H]12)[C@@]1(C)CC[C@@H]([C@H](CCC(=O)O)C(=O)OCc2ccccc2)[C@]1(C)CC3=O` yielded a half-maximal inhibitory concentration (IC50) of 1.47 µM.

In turn, `CC1(C)C(=O)CC[C@]2(C)C3=C(CC[C@@H]12)[C@@]1(C)CC[C@@H]([C@H](CCC(=O)O)C(=O)OCc2ccccc2)[C@]1(C)CC3` came in with an IC50 of 3.68 µM. As to `CC1(C)C(=O)CC[C@]2(C)C3=C(C(=O)C[C@@H]12)[C@@]1(C)CC[C@@H]([C@H](CCC(=O)O)C(=O)OCc2ccccc2)[C@]1(C)CC3`, the half-inhibitory concentration (IC50) was > 40 µM. On to `CC1(C)C(=O)CC[C@]2(C)C3=C(CC[C@@H]12)[C@@]1(C)CC[C@@H]([C@H](CCC(=O)N2CCNCC2)C(=O)OCc2ccccc2)[C@]1(C)CC3`, for which the IC50 was > 40 µM.

The compound `CN1CCN(C(=O)CC[C@H](C(=O)OCc2ccccc2)[C@@H]2CC[C@]3(C)C4=C(CC[C@@]23C)[C@@]2(C)CCC(=O)C(C)(C)[C@@H]2CC4)CC1` showed an IC50 of 31.5 µM. Next, `CN(C)C(=O)CC[C@H](C(=O)OCc1ccccc1)[C@@H]1CC[C@]2(C)C3=C(CC[C@@]12C)[C@@]1(C)CCC(=O)C(C)(C)[C@@H]1CC3`: 0.83 µM; `COC(=O)CC[C@H](C(=O)OCc1ccccc1)[C@@H]1CC[C@]2(C)C3=C(CC[C@@]12C)[C@@]1(C)CCC(=O)C(C)(C)[C@@H]1CC3`: > 40 µM. As for `CC(C)=CCC[C@H](C(=O)OCc1ccccc1)[C@@H]1CC[C@]2(C)C3=C(CC[C@@]12C)[C@@]1(C)C/C(=C\C(=O)O)C(=O)C(C)(C)[C@@H]1CC3`, the figure is 0.57 µM. As for `CC(C)=CCC[C@H](C(=O)OCc1ccccc1)[C@@H]1CC[C@]2(C)C3=C(CC[C@@]12C)[C@@]1(C)C/C(=C\C(=O)N2CCNCC2)C(=O)C(C)(C)[C@@H]1CC3`, the figure is > 40 µM; as for `CC(C)=CCC[C@H](C(=O)OCc1ccccc1)[C@@H]1CC[C@]2(C)C3=C(CC[C@@]12C)[C@@]1(C)C/C(=C\C(=O)N2CCN(C)CC2)C(=O)C(C)(C)[C@@H]1CC3`, 32.3 µM. For the compound `CC1(C)C(=O)CC[C@]2(C)C3=C(CC[C@@H]12)[C@@]1(C)CC[C@@H]([C@H](CCC(N)=O)C(=O)OCc2ccccc2)[C@]1(C)CC3`, the IC50 is > 40 µM. Next, `CC1(C)C(=O)CC[C@]2(C)C3=C(CC[C@@H]12)[C@@]1(C)CC[C@@H]([C@H](CCC#N)C(=O)OCc2ccccc2)[C@]1(C)CC3`: 14.1 µM; `CC1(C)C(=O)CC[C@]2(C)C3=C(CC[C@@H]12)[C@@]1(C)CC[C@@H]([C@H](CCc2nnn[nH]2)C(=O)OCc2ccccc2)[C@]1(C)CC3`: 2.6 µM; `CC(C)=CCC[C@H](C(=O)O)[C@@H]1CC[C@]2(C)C3=C(CC[C@@]12C)[C@@]1(C)CCC(=O)C(C)(C)[C@@H]1CC3`: 13.2 µM.
